Results from patent US20260356835A1, “BICYCLIC HETEROARYL COMPOUNDS” (QuantX Biosciences US, Inc., priority 2023, published 2026).

Columns and labels:
Kuramochi cells = assay: Cellular Viability Assay (5 day Kuramochi cell viability, CellTiter-Glo); assay type: cell-based; conditions: 5 days, 37 °C, growth inhibition relative to Day 0 (T0) and DMSO
Description: Kuramochi cells were seeded at a density of 1000 cells per well in a 384-well, white, sterile, clear bottom plate, using a Multidrop liquid dispenser and incubated for 24 hours at 37 °C in a 5% CO2 humidified environment. 24 hours later, compounds were added starting at a top dose of 10 μM for a 9-point dose response curve at a 1:3 dilution using an iDOT HT liquid handler and incubated for 5 days at 37 °C in a 5% CO2 humidified environment. After 5 days and at Day 0, plates were incubated at room temperature for 30 minutes followed by the addition of 30 μl of CellTiter-Glo Reagent. Plates were then mixed for 10 minutes on an orbital shaker followed by incubation at room temperature for 20 minutes. Luminescence was then read using the Envision plate reader. Percent Growth Inhibition was then calculated using the following equation: Percent Growth Inhibition normalized=100−(compound signal−T0)/(max signal−T0)*100%, where Max Signal refers to the DMSO only treated cells and T0 refers to the Day0 viability measurement. Growth Inhibition 50 was then calculated using the following equation: Y=Bottom+(Top−Bottom)/(1+10^((Log IC50−X)*hillslope)).
For cell activity, bracket is denoted as: A<1 uM; 1 uM<B<5 uM; C>5 uM.

[1] = biological target: T1, N-his8-TEV-hPARG (389-976) (Homo sapiens, UniProt Q86W56); assay: PARG Biochemical Enzymatic Assay (PARG inhibition HTRF assay); conditions: 62.5 pM PARG, 5 nM Biotin-Parylated PARP1 substrate, 60 minutes preincubation, 10 minutes reaction at 23 °C
T1 construct: N-his8-TEV-hPARG (389-976); His8 (N); TEV protease cleavage site (N); made in house; host or cells: E. coli BL21(DE3)
Description: PARG Biochemical Enzymatic Assay
TEV-His8-PolyADP-Ribose Polymerase 1 (379-1014) (PARP1) and N-his8-TEV-hPARG (389-976) were used to transform BL21(DE3) competent cells followed by growth for 1 hour at 37 °C and plating on Kanamycin resistant agar plates. A single colony was then inoculated into 1 ml of Luria Broth and expansion into a 1 liter scale for growth at 37 °C for 3 hours. Expression was induced via 0.2 mM IPTG induction for 20 hours at 16 °C in BL21(DE3) E. coli. Purification was then performed using a Nickel column, size exclusion chromatography and HPLC analysis.
For substrate preparation, […] nicked DNA and 2 μM PARP1 protein were mixed for 10 minutes at 25 °C 10 μM biotin-NAD+ and 100 μM NAD+ were then added and incubated for 60 minutes at 30 °C to yield PARylated PARP1 substrate.
For compound screening, compounds were serially diluted to a 3× final concentration in assay buffer (Tris pH7.5 50 mM, KCl 50 mM, Tween-20 0.01%, BSA 0.1 mg/ml, EDTA 3 mM, EGTA 0.4 mM, DTT 1 mM) containing 1% DMSO. A top concentration of 1.5 μM for a 10-point dose response curve using a 1:3 dilution curve was used. 2.5×PARG (156.25 pM working concentration, 62.5 pM final concentration) was prepared in assay buffer and 4 ul added to a 384 well assay plate containing 2 μl of serially diluted compound. The plate was then centrifuged for 10 seconds and incubated for 60 minutes at 23 °C. 4 μl of 2.5× Biotin-Parylated PARP1 (12.5 nM working concentration, 5 nM final concentration) was then added to the plate and incubated for 10 minutes at 23 °C. 4 μl of […] Detection reagent containing 0.44 μg/ml of Streptavidin-Europium cryptate and 4 μg/ml of anti-6His-XL665 monoclonal antibody was added to the plate and incubated for 60 minutes at 23 °C. The Homogeneous Time Resolved Fluorescent (HTRF) signal was then measured on an Envision plate reader using and excitation wavelength of 337 nm and emission wavelengths of 615 nm and 665 nm. Normalized percent inhibition was then calculated using the following equation: % Inhibition normalized=(compound signal-min signal)/(max signal-min signal)*100%, where Maximum signal was substrate only wells and Minimum signal was enzyme and substrate well. IC50 was calculated by fitting % Inhibition values and log of compound concentrations to nonlinear regression (log(inhibitor) vs. response—Variable slope(four parameters)) with GraphPad 9.4.1
For biochemical activity, bracket is denoted as: A<100 nM; 100 nM<B<500 nM; C>500 nM

T1 sequence (Q86W56 389-976): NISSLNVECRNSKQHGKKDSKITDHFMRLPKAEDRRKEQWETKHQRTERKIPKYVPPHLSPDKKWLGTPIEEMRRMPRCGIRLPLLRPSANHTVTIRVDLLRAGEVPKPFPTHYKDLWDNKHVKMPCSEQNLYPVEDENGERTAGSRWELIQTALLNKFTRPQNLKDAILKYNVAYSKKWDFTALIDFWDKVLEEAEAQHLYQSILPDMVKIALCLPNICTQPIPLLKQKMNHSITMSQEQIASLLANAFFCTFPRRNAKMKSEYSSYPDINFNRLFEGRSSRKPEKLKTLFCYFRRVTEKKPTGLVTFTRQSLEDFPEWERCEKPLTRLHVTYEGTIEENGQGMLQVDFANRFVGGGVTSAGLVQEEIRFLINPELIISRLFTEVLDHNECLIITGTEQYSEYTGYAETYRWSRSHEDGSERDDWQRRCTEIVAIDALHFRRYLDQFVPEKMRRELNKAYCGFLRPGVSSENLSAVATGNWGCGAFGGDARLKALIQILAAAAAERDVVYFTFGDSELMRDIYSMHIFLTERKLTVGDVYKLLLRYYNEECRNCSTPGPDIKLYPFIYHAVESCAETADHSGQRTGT

IC50 [1] [nM]	SMILES	IC50 (Kuramochi cells) [nM]
< 100	N#CC1(NS(=O)(=O)c2cc(N3CCC4(CC3)COC4)n3cnc(-c4nnc(C(F)F)s4)c3c2)CC1 [Example 36, N-(1-cyanocyclopropyl)-1-(5-(difluoromethyl)-1,3,4-thiadiazol-2-yl)-5-(2-oxa-7-azaspiro[3.5]nonan-7-yl)imidazo[1,5-a]pyridine-7-sulfonamide]	< 1000
< 100	O=S(=O)(NC1(C(F)F)CC1)c1cc(N2CCC3(CC2)COC3)c2ncc(-c3nnc(C(F)F)s3)n2c1 [Example 37, 3-(5-(difluoromethyl)-1,3,4-thiadiazol-2-yl)-N-(1-(difluoromethyl)cyclopropyl)-8-(2-oxa-7-azaspiro[3.5]nonan-7-yl)imidazo[1,2-a]pyridine-6-sulfonamide]	< 1000
< 100	O=S(=O)(NC1(C(F)F)CC1)c1cc(N2CCC3(CC2)COC3)c2cnc(-c3nnc(C(F)F)s3)n2c1 [Example 39, 3-(5-(difluoromethyl)-1,3,4-thiadiazol-2-yl)-N-(1-(difluoromethyl)cyclopropyl)-8-(2-oxa-7-azaspiro[3.5]nonan-7-yl)imidazo[1,5-a]pyridine-6-sulfonamide]	< 1000
< 100	O=S(=O)(NC1(C(F)F)CC1)c1cc(N2CCC3(CC2)COC3)c2nnc(-c3nnc(C(F)F)s3)n2c1 [Example 40, 3-(5-(Difluoromethyl)-1,3,4-thiadiazol-2-yl)-N-(1-(difluoromethyl)cyclopropyl)-8-(2-oxa-7-azaspiro[3.5]nonan-7-yl)-[1,2,4]triazolo[4,3-a]pyridine-6-sulfonamide]	< 1000
